Test results: US20260256870A1, “SKIN COMPOSITION” (Eaderm Co., Ltd., priority 2019, published 2026)
Where a name gives a salt, the structure may show the parent alone. Read-outs that look alike come from different tables or passages of the source.

Legend:
COL17A1 = COL17A1 expression in human epidermal keratinocytes by high content imaging (HCS); format: cell-based
Description: The present inventors further searched for substances that induce or maintain the expression of COL17A1. Human epidermal keratinocytes were seeded in 384-well plates, cultured for 48 hours after addition of reagents, immunostained with an anti-COL17A1 antibody and a fluorescently labeled secondary antibody, and then the fluorescence intensity per cell was detected using a high content imaging system (HCS: High Content Screening). In addition to cell counting with DAPI, the expression level of COL17A1 was quantified.

[1] = test system: human epidermal keratinocytes; assay: Colony formation assay using human epidermal keratinocytes; format: cell-based
Excerpt: To test whether COL17A1-mediated SCD maintains clonal proliferation of epidermal stem cell clones, the present inventors used a colony formation assay, which is an in vitro assay said to be the gold standard for assessing the self-renewal ability of epidermal stem cells, including cells in the tail epidermis.

[2] = Table 3, anticancer drugs and molecularly targeted drugs
[3] = Table 1, human epidermal keratinocytes, 48 hours after addition of reagents, fluorescence intensity per cell

| Molecule | COL17A1 expression level (control ratio) (COL17A1; [2]) | COL17A1 expression level (control ratio) (COL17A1; [3]) | also measured |
| --- | --- | --- | --- |
| NC(=O)NO [Hydroxyurea] | 0.92 |  |  |
| C[C@]12C=CC(=O)C=C1CC[C@H]1[C@@H]3C[C@@H](O)[C@](O)(C(=O)CO)[C@@]3(C)C[C@H](O)[C@@]12F [Triamcinolone] |  | ⊚ (one double circle (⊚) represents a 1.2-fold or greater increase) |  |
| COc1ccc2c(c1)c(CC(=O)OCC(=O)O)c(C)n2C(=O)c1ccc(Cl)cc1 [Acemetacin] |  | ⊚ (one double circle (⊚) represents a 1.2-fold or greater increase) |  |
| Nc1ccn([C@@H]2O[C@H](CO)[C@@H](O)C2(F)F)c(=O)n1 [Gemcitabine] | 0.96 |  |  |
| O=NN(CCCl)C(=O)NCCCl [Carmustine] | 0.94 |  |  |
| O=C(O)c1cccnc1Nc1cccc(C(F)(F)F)c1 [Niflumic Acid] |  | ⊚ (one double circle (⊚) represents a 1.2-fold or greater increase) |  |
| C#C[C@]1(O)CC[C@H]2[C@@H]3CCc4cc(O)ccc4[C@H]3CC[C@@]21C [Ethynyl Estsadiol] |  | ⊚⊚ (two double circles (⊚⊚) in the COL17A1 expression level (control ratio) represent a 2.0-fold or greater increase in the expression level) | Colony area (control ratio) ([1]; Table 1): ⊚ (one double circle (⊚) indicates maintenance of 1.0-1.2-fold); Colony number (control ratio) ([1]; Table 1): ⊚ (one double circle (⊚) indicates maintenance of 1.0-1.2-fold) |
| CN1C(=O)C(Cc2c[nH]c3ccccc23)NC1=S (stereo not drawn) [Necrostatin-1] |  | ⊚ (one double circle (⊚) represents a 1.2-fold or greater increase) | Colony area (control ratio) ([1]; Table 1): ⊚ (one double circle (⊚) indicates maintenance of 1.0-1.2-fold); Colony number (control ratio) ([1]; Table 1): ⊚ (one double circle (⊚) indicates maintenance of 1.0-1.2-fold) |
| COc1ccc(-c2coc3cc(O)cc(O)c3c2=O)cc1 [Biochanin A] |  | ⊚ (one double circle (⊚) represents a 1.2-fold or greater increase) | Colony area (control ratio) ([1]; Table 1): ○; Colony number (control ratio) ([1]; Table 1): ○ |
| c1ccc2c(c1)[I+]c1ccccc1-2 [Diphenyleneiodonium (DPI), Diphenyleneiodonium] |  | ⊚ (one double circle (⊚) represents a 1.2-fold or greater increase) | Colony area (control ratio) ([1]; Table 1): ○; Colony number (control ratio) ([1]; Table 1): ○ |
| Toremiphene citrate | 0.94 |  |  |
| Clc1ccccc1C(c1ccccc1)(c1ccccc1)n1ccnc1 [Clotrimazole] |  | ⊚ (one double circle (⊚) represents a 1.2-fold or greater increase) |  |
| C=C1C[C@@H]2[C@H](CC[C@]3(C)C(=O)CC[C@@H]23)[C@@]2(C)C=CC(=O)C=C12 [Exemestane] | 0.93 |  |  |
| Cn1nnc2c(C(N)=O)ncn2c1=O [Temozolomide] | 0.98 |  |  |
| OC1(c2ccc(Cl)c(C(F)(F)F)c2)CCN(CCCC(c2ccc(F)cc2)c2ccc(F)cc2)CC1 [Penfluridol] |  | ⊚ (one double circle (⊚) represents a 1.2-fold or greater increase) | Colony area (control ratio) ([1]; Table 1): ⊚ (one double circle (⊚) indicates maintenance of 1.0-1.2-fold); Colony number (control ratio) ([1]; Table 1): ⊚ (one double circle (⊚) indicates maintenance of 1.0-1.2-fold) |
| CN1C(C(=O)Nc2ccccn2)=C(O)c2sccc2S1(=O)=O [Tenoxicam] |  | ⊚ (one double circle (⊚) represents a 1.2-fold or greater increase) |  |
| N.N.[Cl][Pt][Cl] [Cisplatin] | 0.97 |  |  |
| CCC(=O)O[C@H]1CC[C@H]2[C@@H]3CCC4=CC(=O)CC[C@]4(C)[C@H]3CC[C@]12C [Testosterone propionate] | 0.84 |  |  |
| Nc1nc(F)nc2c1ncn2[C@@H]1O[C@H](COP(=O)(O)O)[C@@H](O)[C@@H]1O [Fludarabine phosphate] | 0.90 |  |  |
| COc1cccc(-c2cc(=O)c3ccccc3o2)c1N [PD98059] | 0.84 |  |  |

| Molecule | COL17A1 expression level (control ratio) (COL17A1; [2]) | COL17A1 expression level (control ratio) (COL17A1; [3]) | also measured |
| --- | --- | --- | --- |
| CCCCc1oc2ccccc2c1C(=O)c1cc(I)c(OCCN(CC)CC)c(I)c1 [Amiodarone Hydrochloride] |  | ⊚⊚ (two double circles (⊚⊚) in the COL17A1 expression level (control ratio) represent a 2.0-fold or greater increase in the expression level) | Colony area (control ratio) ([1]; Table 1): ○; Colony number (control ratio) ([1]; Table 1): ⊚ (one double circle (⊚) indicates maintenance of 1.0-1.2-fold) |
| S=c1nc[nH]c2nc[nH]c12 [Mercaptopurine] | 0.83 |  |  |
| CN(C)/N=N/c1[nH]cnc1C(N)=O [Dacarbazine] | 0.94 |  |  |
| COc1ccc(-c2cc(C(F)F)nn2-c2ccc(S(N)(=O)=O)cc2)cc1F [Deracoxib] |  | ⊚ (one double circle (⊚) represents a 1.2-fold or greater increase) |  |
| N=C(N)NN [Aminoguanidine] |  | ○ (one circle (0) represents a 1.0-1.2-fold maintenance) | Colony area (control ratio) ([1]; Table 1): ○; Colony number (control ratio) ([1]; Table 1): ○ |
| CCCCOc1ccc(CC(=O)NO)cc1 [Bufexamac] |  | ⊚ (one double circle (⊚) represents a 1.2-fold or greater increase) |  |
| O=c1c2ccccc2[se]n1-c1ccccc1 [Ebselen] |  | ⊚ (one double circle (⊚) represents a 1.2-fold or greater increase) | Colony area (control ratio) ([1]; Table 1): ⊚ (one double circle (⊚) indicates maintenance of 1.0-1.2-fold); Colony number (control ratio) ([1]; Table 1): ⊚ (one double circle (⊚) indicates maintenance of 1.0-1.2-fold) |
| CC(C)=CCC1=C(O)C(=O)c2ccccc2C1=O [Lapachol] |  |  | COL17A1 expression level (control ratio) (COL17A1; Table 2, human epidermal keratinocytes, 48 hours after addition of reagents): ⊚⊚ (two double circles (⊚⊚) in the COL17A1 expression level (control ratio) represent a 2.0-fold or greater increase in the expression level); Colony area (control ratio) ([1]; Table 2): ⊚ (one double circle (⊚) indicates maintenance of 1.0-1.2-fold); Colony number (control ratio) ([1]; Table 2): ⊚ (one double circle (⊚) indicates maintenance of 1.0-1.2-fold) |
| O=P1(NCCCl)OCCCN1CCCl (stereo not drawn) [Ifosfamide] | 0.84 |  |  |
| Monensin Sodium |  | ⊚ (one double circle (⊚) represents a 1.2-fold or greater increase) |  |
| CC/C(=C(\c1ccccc1)c1ccc(OCCN(C)C)cc1)c1ccccc1 [Tamoxifen citrate] | 0.78 |  |  |
| O=c1[nH]c(=O)n(C2CCCO2)cc1F (stereo not drawn) [Tegafur] | 0.90 |  |  |
| O=P1(N(CCCl)CCCl)NCCCO1 (stereo not drawn) [Cyclophosphamide hydrate] |  |  | COL17A1 expression level (control ratio) (COL17A1): 0.88 |
| CC(=O)O.O=c1[nH]cc(F)c(=O)[nH]1 [Fluorouracil acetate] | 0.88 |  |  |
| C[C@H]1C[C@H]2[C@@H]3CCC4=CC(=O)C=C[C@]4(C)[C@@]3(F)[C@@H](O)C[C@]2(C)[C@@]1(O)C(=O)CO [Bethamethazone] |  | ⊚⊚ (two double circles (⊚⊚) in the COL17A1 expression level (control ratio) represent a 2.0-fold or greater increase in the expression level) |  |
| C[C@H]1[C@@H](O)O[C@@H]2O[C@@]3(C)CC[C@H]4[C@H](C)CC[C@@H]1[C@@]24OO3 [Artenimol] |  | ⊚ (one double circle (⊚) represents a 1.2-fold or greater increase) |  |
| Clc1ccc(C(c2ccccc2Cl)C(Cl)Cl)cc1 (stereo not drawn) [Mitotane] | 0.98 |  |  |
| Cc1c(Cl)cccc1Nc1ccccc1C(=O)O [Tolfenamic Acid] |  | ⊚ (one double circle (⊚) represents a 1.2-fold or greater increase) |  |
| COc1ccc(C[C@H](N)C(=O)N[C@H]2[C@@H](O)[C@H](n3cnc4c(N(C)C)ncnc43)O[C@@H]2CO)cc1 [Puromycin hydrochloride] | 0.85 |  |  |
